Measurements from the NIST ThermoML archive (doi:10.1021/je010272x).
± gives the expanded uncertainty stated by the source.

Legend:
[1] = Liquid
[2] = Boiling temperature at pressure P; settings: Liquid, ebulliometry

CCC(C)CO (centres undefined) [2-methyl-1-butanol]
vapor or sublimation pressure ([1]; 357.85 K): 16.7 ± 0.3 kPa | vapor or sublimation pressure ([1]; 364.85 K): 23.3 ± 0.3 kPa | vapor or sublimation pressure ([1]; 370.45 K): 30 ± 0.4 kPa | vapor or sublimation pressure ([1]; 372.95 K): 33.3 ± 0.4 kPa | vapor or sublimation pressure ([1]; 375.15 K): 36.7 ± 0.4 kPa | vapor or sublimation pressure ([1]; 379.05 K): 43.3 ± 0.4 kPa | vapor or sublimation pressure ([1]; 382.75 K): 50 ± 0.4 kPa | vapor or sublimation pressure ([1]; 385.65 K): 56.6 ± 0.5 kPa | vapor or sublimation pressure ([1]; 388.95 K): 63.3 ± 0.5 kPa | vapor or sublimation pressure ([1]; 390.35 K): 66.6 ± 0.5 kPa | vapor or sublimation pressure ([1]; 391.65 K): 70 ± 0.5 kPa | vapor or sublimation pressure ([1]; 394.15 K): 76.6 ± 0.5 kPa | vapor or sublimation pressure ([1]; 396.65 K): 83.3 ± 0.6 kPa | vapor or sublimation pressure ([1]; 398.85 K): 90 ± 0.6 kPa | vapor or sublimation pressure ([1]; 401.05 K): 96.6 ± 0.6 kPa | vapor or sublimation pressure ([1]; 402.45 K): 101.3 ± 0.6 kPa

CCO [ethanol]
Boiling temperature at pressure P ([2]; 33.3 kPa): 52.60 ± 0.2 °C | Boiling temperature at pressure P ([2]; 66.6 kPa): 68.00 ± 0.2 °C | Boiling temperature at pressure P ([2]; 101.3 kPa): 78.30 ± 0.2 °C
